What was measured:
bermudagrass = experiment: Test E pre-/postemergence herbicide test; assay type: in vivo, Cynodon dactylon
Excerpt: (§1) Seeds of plant species selected from bipinnate beggarticks (Bidens bipinnata L.), hairy beggarticks (Bidens radiata Thuill.), bermudagrass (Cynodon dactylon (L.) Pers.), Surinam grass (Urochloa decumbens (Staph) R. D. Webster, previously named Brachiaria decumbens Stapf), large crabgrass (Digitaria sanguinalis (L.) Scop.), green foxtail (Setaria viridis (L.) P. Beauv.), goosegrass (Eleusine indica (L.) Gaertn.), johnsongrass (Sorghum halepense (L.) Pers.), kochia (Kochia scoparia (L.) Schrad.), pitted morningglory (Ipomoea lacunosa L.), purple nutsedge (Cyperus rotundus L.), common ragweed (Ambrosia elatior L.), mustard (Brassica nigra (L.) W. D. J. Koch), guineagrass (Panicum maximum Jacq.), dallisgrass (Paspalum dilatatum Poir.), barnyardgrass (Echinochloa crus-galli (L). P. Beauv.), southern sandbur (Cenchrus echinatus L.), common sowthistle (Sonchus oleraceous L.), prickly sida (Sida spinosa L.), Italian ryegrass (Lolium multiflorum Lam.), common purslane (Portulaca oleracea L.), broadleaf signalgrass (Brachiaria platyphylla (Griseb.) Nash), common groundsel (Senecio vulgaris L.), common chickweed (Stellaria media (L.) Vill/Cyr.), tropical spiderwort (Commelina benghalensis L.), annual bluegrass (Poa annua L.), downy bromegrass (Bromus tectorum L.), itchgrass (Rottboellia cochinchinensis (L.) L.f.), quackgrass (Elytrigia repens (L.) Nevski), Canada horseweed (Erigeron Canadensis L.), field bindweed (Convolvulus arvensis L.), spotted spurge (Euphorbia maculata L.), common mallow (Malva sylvestris (=s silvestris) L.), and Russian thistle (Salsola kali L. ssp. Ruthenica (Iljin) Soo) were planted and treated preemergence with test chemicals formulated in a non-phytotoxic solvent mixture which included a surfactant.
(§2) At the same time, plants selected from these weed species were treated with postemergence applications of some of the test chemicals formulated in the same manner. Plants ranged in height from 2 to 18 cm (1- to 4-leaf stage) for postemergence treatments. Treated plants and controls were maintained in a greenhouse for 12 to 14 days, after which time all species were compared to controls and visually evaluated. Plant response ratings, summarized in Table E, are based on a scale of 0 to 100 where 0 is no effect and 100 is complete control. A dash (-) response means no test result.

Surinam grass = experiment: Test E pre-/postemergence herbicide test; assay type: in vivo, Urochloa decumbens
Excerpt: as §1, §2

large crabgrass = experiment: Test E pre-/postemergence herbicide test; assay type: in vivo, Digitaria sanguinalis
Excerpt: as §1, §2

common ragweed = experiment: Test E pre-/postemergence herbicide test; assay type: in vivo, Ambrosia elatior
Excerpt: as §1, §2

mustard = experiment: Test E pre-/postemergence herbicide test; assay type: in vivo, Brassica nigra
Excerpt: as §1, §2

guineagrass = experiment: Test E pre-/postemergence herbicide test; assay type: in vivo, Panicum maximum
Excerpt: as §1, §2

tropical spiderwort = experiment: Test E pre-/postemergence herbicide test; assay type: in vivo, Commelina benghalensis
Excerpt: as §1, §2

Russian thistle = experiment: Test E pre-/postemergence herbicide test; assay type: in vivo, Salsola kali; conditions: Preemergence
Excerpt: as §1, §2

ducksalad = experiment: Test D flooded paddy test; assay type: in vivo, Heteranthera limosa; conditions: 21 days, scale 0 to 100
Excerpt: (§3) Three plastic pots (ca. 16-cm diameter) per rate were partially filled with sterilized Tama silt loam soil comprising a 35:50:15 ratio of sand, silt and clay and 2.6% organic matter. Separate plantings for each of the three pots were as follows. Seeds from the U.S. of ducksalad (Heteranthera limosa (Sw.) Willd.), smallflower umbrella sedge (Cyperus difformis L.) and purple redstem (Ammannia coccinea Rottb.), were planted into one 16-cm pot for each rate. Seeds from the U.S. of rice flatsedge (Cyperus iria L.), bearded sprangletop (Leptochloa fascicularis (Lam.) Gray), one stand of 9 or 10 water seeded rice seedlings (Oryza sativa L. cv. ‘Japonica—M202’), and one stand of 6 transplanted rice seedlings (Oryza sativa L. cv. ‘Japonica—M202’) were planted into one 16-cm pot for each rate. Seeds from the U.S. of barnyardgrass (Echinochloa crus-galli (L.) Beauv.), late watergrass (Echinochloa oryzicola Vasinger), early watergrass (Echinochloa oryzoides (Ard.) Fritsch) and junglerice (Echinochloa colona (L.) Link) were planted into one 16-cm pot for each rate. Plantings were sequential so that crop and weed species were at the 2.0 to 2.5-leaf stage at time of treatment.
(§4) Potted plants were grown in a greenhouse with day/night temperature settings of 29.5/26.7° C., and supplemental balanced lighting was provided to maintain a 16-hour photoperiod. Test pots were maintained in the greenhouse until test completion.
(§5) At time of treatment, test pots were flooded to 3 cm above the soil surface, treated by application of test compounds directly to the paddy water, and then maintained at that water depth for the duration of the test. Effects of treatments on rice and weeds were visually evaluated by comparison to untreated controls after 21 days. Plant response ratings are reported on a 0 to 100 scale; where 0 is no effect and 100 is complete control. A dash (-) response means no test result.

[1] = system: smallflower umbrella sedge; experiment: Test D flooded paddy test; assay type: in vivo, Cyperus difformis; conditions: 21 days, scale 0 to 100
Excerpt: as §3, §4, §5

late watergrass = experiment: Test D flooded paddy test; assay type: in vivo, Echinochloa oryzicola; conditions: 21 days, scale 0 to 100
Excerpt: as §3, §4, §5

[2] = Postemergence, 500 g ai/ha, scale 0 to 100
[3] = Postemergence, 250 g ai/ha, scale 0 to 100
[4] = Preemergence, 62 g ai/ha, scale 0 to 100
[5] = Preemergence, 125 g ai/ha, scale 0 (no effect) to 100 (complete control)
[6] = Preemergence, 250 g ai/ha, scale 0 (no effect) to 100 (complete control)
[7] = Preemergence, 500 g ai/ha, scale 0 (no effect) to 100 (complete control)
[8] = postemergence, 125 g ai/ha, scale 0 to 100
[9] = postemergence, 62 g ai/ha, scale 0 to 100
[10] = Preemergence, 125 g ai/ha, scale 0 to 100
[11] = 500 g ai/ha, scale 0 (no effect) to 100 (complete control)

CCn1nc(C(C)(C)C)cc1C(=O)Nc1cc(C(=O)N(C)C)ccc1F [Compound 6, N-[5-[(dimethylamino)carbonyl]-2-fluorophenyl]-3-(1,1-dimethylethyl)-1-ethyl-1H-pyrazole-5-carboxamide]
90: Plant response rating, Bermudagrass (bermudagrass; [3]) | Plant response rating, Bermudagrass (bermudagrass; [4]) | Plant response rating, Surinam Grass (Surinam grass; [10]) | Plant response rating, Surinam Grass (Surinam grass; [8]) | Plant response rating, Crabgrass, Large (large crabgrass; [5]) | Plant response rating, Crabgrass, Large (large crabgrass; [8]) | Plant response rating, Ragweed (common ragweed; [8]) | Plant response rating, Guineagrass (guineagrass; [8]) | Plant response rating, Spiderwort (tropical spiderwort; [3])
95: Plant response rating, Bermudagrass (bermudagrass; [5]) | Plant response rating, Bermudagrass (bermudagrass; [6]) | Plant response rating, Surinam Grass (Surinam grass; [3]) | Plant response rating, Ragweed (common ragweed; [2]) | Plant response rating, Ragweed (common ragweed; [3]) | Plant response rating, Ragweed (common ragweed; [7]) | Plant response rating, Black Mustard (mustard; [9]) | Plant response rating, Guineagrass (guineagrass; [3]) | Plant response rating, Guineagrass (guineagrass; [4]) | Plant response rating, Guineagrass (guineagrass; [5]) | Plant response rating, Guineagrass (guineagrass; [6]) | Plant response rating, Spiderwort (tropical spiderwort; [2]) | Plant response rating, Spiderwort (tropical spiderwort; [7])
98: Plant response rating, Bermudagrass (bermudagrass; [2]) | Plant response rating, Surinam Grass (Surinam grass; [2]) | Plant response rating, Crabgrass, Large (large crabgrass; [2]) | Plant response rating, Crabgrass, Large (large crabgrass; [3]) | Plant response rating, Guineagrass (guineagrass; [2])
80: Plant response rating, Bermudagrass (bermudagrass; [8]) | Plant response rating, Crabgrass, Large (large crabgrass; [4]) | Plant response rating, Ragweed (common ragweed; [5]) | Plant response rating, Guineagrass (guineagrass; [9]) | Plant response rating, Spiderwort (tropical spiderwort; [6]) | Plant response rating, Thistle (Russian thistle; [11])
85: Plant response rating, Surinam Grass (Surinam grass; [4])
60: Plant response rating, Spiderwort (tropical spiderwort; [9])
75: Plant response rating, Surinam Grass (Surinam grass; [9]) | Plant response rating, Crabgrass, Large (large crabgrass; [9]) | Plant response rating, Ragweed (common ragweed; [9]) | Plant response rating, Spiderwort (tropical spiderwort; [5]) | Plant response rating, Spiderwort (tropical spiderwort; [8])
35: Plant response rating, Bermudagrass (bermudagrass; [9])
50: Plant response rating, Ragweed (common ragweed; [4]) | Plant response rating, Thistle (Russian thistle; 62 g ai/ha, scale 0 to 100)
70: Plant response rating, Spiderwort (tropical spiderwort; [4]) | Plant response rating, Thistle (Russian thistle; 125 g ai/ha, scale 0 to 100) | Plant response rating, Thistle (Russian thistle; 250 g ai/ha, scale 0 (no effect) to 100 (complete control))
100: Plant response rating, Bermudagrass (bermudagrass; [7]) | Plant response rating, Surinam Grass (Surinam grass; [7]) | Plant response rating, Crabgrass, Large (large crabgrass; [7]) | Plant response rating, Black Mustard (mustard; [2]) | Plant response rating, Black Mustard (mustard; [3]) | Plant response rating, Black Mustard (mustard; [4]) | Plant response rating, Black Mustard (mustard; [5]) | Plant response rating, Black Mustard (mustard; [6]) | Plant response rating, Black Mustard (mustard; [7]) | Plant response rating, Black Mustard (mustard; [8]) | Plant response rating, Guineagrass (guineagrass; [7])

CCc1nc(C(C)(C)C)sc1C(=O)Nc1cccc(C(=O)NCC2CC2)n1 [Compound 215]
100: Plant response rating, Sedge, Umbrella ([1]; 1000 g ai/ha)
0: Plant response rating, Ducksalad (ducksalad; 125 g ai/ha) | Plant response rating, Ducksalad (ducksalad; 250 g ai/ha) | Plant response rating, Watergrass, Late (late watergrass; 125 g ai/ha) | Plant response rating, Watergrass, Late (late watergrass; 250 g ai/ha)
95: Plant response rating, Sedge, Umbrella ([1]; 250 g ai/ha) | Plant response rating, Sedge, Umbrella ([1]; 500 g ai/ha) | Plant response rating, Sedge, Umbrella ([1]; 750 g ai/ha)
75: Plant response rating, Ducksalad (ducksalad; 1000 g ai/ha)
20: Plant response rating, Ducksalad (ducksalad; 500 g ai/ha) | Plant response rating, Ducksalad (ducksalad; 750 g ai/ha) | Plant response rating, Sedge, Umbrella ([1]; 125 g ai/ha) | Plant response rating, Watergrass, Late (late watergrass; 500 g ai/ha) | Plant response rating, Watergrass, Late (late watergrass; 750 g ai/ha) | Plant response rating, Watergrass, Late (late watergrass; 1000 g ai/ha)

CCc1nn(C(C)(C)CC)nc1C(=O)Nc1cccc(C(=O)N(C)C)c1 [Compound 372]
75: Plant response rating, Surinam Grass (Surinam grass; [7])
70: Plant response rating, Crabgrass, Large (large crabgrass; [6]) | Plant response rating, Ragweed (common ragweed; [7]) | Plant response rating, Spiderwort (tropical spiderwort; [10]) | Plant response rating, Spiderwort (tropical spiderwort; [6])
80: Plant response rating, Guineagrass (guineagrass; [10]) | Plant response rating, Guineagrass (guineagrass; [6]) | Plant response rating, Spiderwort (tropical spiderwort; [7]) | Plant response rating, Thistle (Russian thistle; [11])
100: Plant response rating, Crabgrass, Large (large crabgrass; [7]) | Plant response rating, Black Mustard (mustard; [4]) | Plant response rating, Black Mustard (mustard; [10]) | Plant response rating, Black Mustard (mustard; [6]) | Plant response rating, Black Mustard (mustard; [7])
95: Plant response rating, Guineagrass (guineagrass; [7])
90: Plant response rating, Bermudagrass (bermudagrass; [7])
40: Plant response rating, Surinam Grass (Surinam grass; [10]) | Plant response rating, Ragweed (common ragweed; [6]) | Plant response rating, Guineagrass (guineagrass; [4]) | Plant response rating, Thistle (Russian thistle; 125 g ai/ha, scale 0 to 100)
20: Plant response rating, Ragweed (common ragweed; [10])
50: Plant response rating, Crabgrass, Large (large crabgrass; [10])
10: Plant response rating, Bermudagrass (bermudagrass; [4]) | Plant response rating, Crabgrass, Large (large crabgrass; [4]) | Plant response rating, Ragweed (common ragweed; [4])
60: Plant response rating, Bermudagrass (bermudagrass; [10]) | Plant response rating, Bermudagrass (bermudagrass; [6])

Cc1nn(C(C)(C)C)nc1C(=O)Nc1cccc(C(=O)N(C)C)c1 [Compound 391]
70: Plant response rating, Surinam Grass (Surinam grass; [10])
95: Plant response rating, Bermudagrass (bermudagrass; [6]) | Plant response rating, Bermudagrass (bermudagrass; [7]) | Plant response rating, Crabgrass, Large (large crabgrass; [10]) | Plant response rating, Crabgrass, Large (large crabgrass; [6]) | Plant response rating, Crabgrass, Large (large crabgrass; [7]) | Plant response rating, Ragweed (common ragweed; [6]) | Plant response rating, Spiderwort (tropical spiderwort; [7])
50: Plant response rating, Ragweed (common ragweed; [4]) | Plant response rating, Black Mustard (mustard; [4])
80: Plant response rating, Black Mustard (mustard; [10]) | Plant response rating, Guineagrass (guineagrass; [10])
75: Plant response rating, Ragweed (common ragweed; [10])
85: Plant response rating, Bermudagrass (bermudagrass; [4])
100: Plant response rating, Surinam Grass (Surinam grass; [7]) | Plant response rating, Ragweed (common ragweed; [7]) | Plant response rating, Black Mustard (mustard; [6]) | Plant response rating, Black Mustard (mustard; [7]) | Plant response rating, Guineagrass (guineagrass; [6]) | Plant response rating, Guineagrass (guineagrass; [7]) | Plant response rating, Thistle (Russian thistle; 125 g ai/ha, scale 0 to 100) | Plant response rating, Thistle (Russian thistle; [11])
60: Plant response rating, Crabgrass, Large (large crabgrass; [4]) | Plant response rating, Guineagrass (guineagrass; [4])
90: Plant response rating, Bermudagrass (bermudagrass; [10]) | Plant response rating, Spiderwort (tropical spiderwort; [10]) | Plant response rating, Spiderwort (tropical spiderwort; [6])

From patent publication US20060069132A1, “Azolecarboxamide herbicides” (priority 2004, published 2006)
